target: T1, ML1a human melatonin receptor (Homo sapiens, UniProt P48039); test: Melatonergic binding: ML1a human melatonin receptor binding (2-[125I]-iodomelatonin, COS-1 cell membranes); details: human ML1a in COS-1 cells; 37° C., 1 hour; read-out: In-Vitro Receptor Binding Activities ML1a (IC50)
T1 construct: expressed in transfected cells; host or cells: COS-1 cells
Experimental: (§1) The melatonergic binding of the compounds of Formula I was determined by the method of Reppert, S. M., et al., as described in Neuron, Vol. 13, 1177-1185 (1994) and Proc. Nat. Acad. Sci. USA, 92, 8734-8738 (1995) and also as described by Stankov, B., et al., "Characterization and mapping of melatonin receptors in the brain of three mammalian species: Rabbit, horse and sheep," in Neuroendocrinology, 53, 214-221 (1991). The assays were incubated at 37° C. for 1 hour, and the reaction was terminated by filtration through a Brandel cell harvester. The filters were washed 3 times with wash buffer. […] The reagents, membranes, and techniques used in the melatonergic binding assays are more fully described below:
(§2) (a) 50 mM Tris buffer containing 12.5 mM MgCl2 and 2 mM EDTA (pH 7.4 at 37° C.).
(§3) (b) Wash buffer: 20 mM Tris base containing 2 mM MgCl2 (pH 7.4 at room temperature).
(§4) (c) 6-Chloromelatonin (10^-5 M final concn.).
(§5) (d) 2-[^125 I]-Iodomelatonin. Source: New England Nuclear
The cDNA (human ML1a) was introduced into COS-1 cells by the DEAE-dextran method. Three days later, the media was removed, the plates washed with phosphate buffered saline, the cells removed using Hank's balanced salt solution and pelleted. The supernatant was discarded and the pellets frozen. For preparing membrane homogenates, the pellets are thawed on ice, and resuspended in TME buffer [Tris base, MgCl2, EDTA (pH 7.4 at 37° C.], supplemented with aprotinin, leupeptin and phenylmethyl-sulfonylfluoride. The cells were then homogenized using a dounce homogenizer and centrifuged. The resulting pellet was resuspended with a dounce homogenizer in TME and frozen. On the day of assay, a small aliquot was thawed on ice and resuspended in TME buffer (1:1000).

T1 sequence (P48039 whole entry): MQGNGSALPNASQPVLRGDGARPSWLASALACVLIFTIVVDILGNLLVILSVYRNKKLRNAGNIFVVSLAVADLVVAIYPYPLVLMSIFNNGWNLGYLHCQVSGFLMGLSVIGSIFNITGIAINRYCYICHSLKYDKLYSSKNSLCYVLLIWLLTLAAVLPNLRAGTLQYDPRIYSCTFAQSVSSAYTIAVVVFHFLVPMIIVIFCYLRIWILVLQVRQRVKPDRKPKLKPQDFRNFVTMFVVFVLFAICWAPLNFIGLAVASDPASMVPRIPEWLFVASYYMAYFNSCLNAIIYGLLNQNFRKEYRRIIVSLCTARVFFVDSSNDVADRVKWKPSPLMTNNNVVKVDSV

`CCC(=O)Nc1cccc(-c2cccc(OC)c2)c1` [Example 4, N-(3'-Methoxy-[1,1 '-biphenyl]-3-yl)propanamide] and `CCCC(=O)Nc1cccc(-c2cccc(OC)c2)c1` [Example 1, N-(3'-Methoxy-[1,1'-biphenyl]-3-yl)butanamide] cannot be ordered by IC50: less than 100 nM for the first, less than 100 nM for the second.

`CCNC(=O)Nc1cccc(-c2cccc(OC)c2)c1` [Example 6, N-Ethyl N'-(3'-methoxy-[1,1'-biphenyl]-3-yl)urea] and `CCNC(=O)NCc1cccc(-c2cccc(OC)c2)c1` [Example 12, N-Ethyl N'-[(3'-methoxy-[1,1'-biphenyl]-3-yl)methyl]urea] cannot be ordered by IC50: greater than 300 nM for the first, greater than 300 nM for the second.

Compared with `COc1cccc(-c2cccc(NC(=O)C(C)C)c2)c1` [Example 2, N-(3'-Methoxy-[1,1'-biphenyl]-3-yl)2-methylpropanamide], `COc1cccc(-c2cccc(CNC(=O)C(C)C)c2)c1` [Example 11, N-[(3'-methoxy-[1,1'-biphenyl]-3-yl)methyl]-2-methylpropanamide] is higher in IC50: less than 100 nM for the first, 100 to 300 nM for the second.

Compared with `CCCC(=O)NCc1cccc(-c2cccc(OC)c2)c1` [Example 10, N-[(3'-methoxy-[1,1'-biphenyl]-3-yl)methyl]butanamide], `CCCC(=O)NCc1ccccc1-c1cccc(OC)c1` [Example 7, N-[(3'-Methoxy[1,1'-biphenyl]-2-yl)methyl]butanamide] is lower in IC50: greater than 300 nM for the first, 100 to 300 nM for the second.

First: COc1cccc(-c2cccc(NC(=O)C3CC3)c2)c1 [Example 3, N-(3'-Methoxy-[1,1'-biphenyl]-3-yl)cyclopropanecarboxamide]
Second: COCC(=O)Nc1cccc(-c2cccc(OC)c2)c1 [Example 5, N-(3'-Methoxy-[1,1'-biphenyl]-3-yl)-2-methoxyacetamide]
The IC50 of the first is lower: less than 100 nM for the first, greater than 300 nM for the second. The first is the more potent here.

`COc1cccc(-c2ccccc2CNC(=O)C(C)C)c1` [Example 8, N-[(3'-Methoxy[1,1'-biphenyl]-2-yl)methyl]-2-methylpropanamide] and `CCNC(=O)NCc1ccccc1-c1cccc(OC)c1` [Example 9, N-Ethyl N'-[(3'-methoxy[1,1'-biphenyl]-2-yl)methyl]urea] fall in the same range of IC50: 100 to 300 nM for the first, 100 to 300 nM for the second.

target: ML1 rabbit melatonin receptor; test: Melatonergic binding: ML1 rabbit melatonin receptor binding (2-[125I]-iodomelatonin, rabbit parietal cortex); set-up: species or system rabbit (Male New Zealand white); details: 37° C., 1 hour, read-out: In-Vitro Receptor Binding Activities ML1 (IC50)
Experimental: as §1, §2, §3, §4, §5
Male New Zealand white rabbits (Hazelton Research) are decapitated, the brains are rapidly removed and chilled. The parietal cortex is crudely dissected and the tissue frozen on dry ice at -80° C. until assayed. Tissue is weighed and thawed in 20 mls of ice-cold Tris buffer (a) and then homogenized by treatment with a polytron for 10 seconds at setting 17. Ice cold Tris (a) is added to a volume of 40 ml. The homogenate is centrifuged in a Sorvall-SS-34 head at 19,000 rpm (44,000× g) for 20 min at 4° C. The resulting supernatant is decanted and discarded. The pellet is re-homogenized in an additional 20 ml of Tris buffer, diluted and centrifuged as before. The supernatant is decanted and discarded. The resulting pellet is homogenized in 20 volumes of Tris buffer per gram of original tissue (a 1:20 homogenate), chilled, and held on ice until assayed.

First: CCNC(=O)Nc1cccc(-c2cccc(OC)c2)c1 [Example 6, N-Ethyl N'-(3'-methoxy-[1,1'-biphenyl]-3-yl)urea]
Second: CCCC(=O)Nc1cccc(-c2cccc(OC)c2)c1 [Example 1, N-(3'-Methoxy-[1,1'-biphenyl]-3-yl)butanamide]
The IC50 of the first is higher: greater than 50 nM for the first, less than 10 nM for the second. The second is the more potent here.

`CCNC(=O)NCc1cccc(-c2cccc(OC)c2)c1` [Example 12, N-Ethyl N'-[(3'-methoxy-[1,1'-biphenyl]-3-yl)methyl]urea] and `CCCC(=O)NCc1cccc(-c2cccc(OC)c2)c1` [Example 10, N-[(3'-methoxy-[1,1'-biphenyl]-3-yl)methyl]butanamide] fall in the same range of IC50: 10 to 50 nM for the first, 10 to 50 nM for the second.

Compared with `COc1cccc(-c2cccc(NC(=O)C(C)C)c2)c1` [Example 2, N-(3'-Methoxy-[1,1'-biphenyl]-3-yl)2-methylpropanamide], `COc1cccc(-c2cccc(CNC(=O)C(C)C)c2)c1` [Example 11, N-[(3'-methoxy-[1,1'-biphenyl]-3-yl)methyl]-2-methylpropanamide] is lower in IC50: greater than 50 nM for the first, less than 10 nM for the second. The second is the more potent here.

Compared with `CCCC(=O)NCc1ccccc1-c1cccc(OC)c1` [Example 7, N-[(3'-Methoxy[1,1'-biphenyl]-2-yl)methyl]butanamide], `CCNC(=O)NCc1ccccc1-c1cccc(OC)c1` [Example 9, N-Ethyl N'-[(3'-methoxy[1,1'-biphenyl]-2-yl)methyl]urea] is lower in IC50: 10 to 50 nM for the first, less than 10 nM for the second. The second is the more potent here.

`COc1cccc(-c2ccccc2CNC(=O)C(C)C)c1` [Example 8, N-[(3'-Methoxy[1,1'-biphenyl]-2-yl)methyl]-2-methylpropanamide] showed an IC50 of less than 10 nM.
